Source: patent US11472830B2, “Cyclic dinucleotides as sting agonists” (Janssen Biotech, Inc., priority 2016, dated 2022)

How the values were obtained:
[1] = system: IFN-β secretion in THP1-Blue ISG cells; experiment: Human interferon-β induction assay; assay type: cell-based; conditions: total cumulative IFN-β induction over the dose range tested (0.78 to 50 uM) in THP-1 cells
Protocol: Human Interferon-β Induction Assay
THP1-Blue ISG cells are used to measure the secretion of IFN-β into the culture supernatant following STING pathway activation. To run the assay, anti-IFN-β capture antibodies were coated on 96 well MultiArray plates (Mesoscale Discovery). After a one hour incubation, plates were washed and 50 μL supernatant from the STING human cell reporter assay plates or IFN-β standards were mixed with 20 μL Sulfotag-conjugated detection antibody in the coated plates. Plates were incubated, shaking for 2 h, washed, and read buffer was applied. Electrochemiluminescence was measured on the Sectorlmager.

[2] = system: human STING pathway in THP1-ISG cells; experiment: STING human cell reporter assay; assay type: cell-based; conditions: 24 h, mean of at least three values
Protocol: STING Human Cell Reporter Assay
Agonism of the human STING pathway is assessed in THP1-ISG cells (Invivogen, cat #thp-isg) derived from human THP1 monocyte cell line by stable integration of an interferon regulatory factor (IRF)-inducible SEAP reporter construct. THP1-Blue ISG cells express a secreted embryonic alkaline phosphatase (SEAP) reporter gene under the control of an ISG54 minimal promoter in conjunction with five interferon (IFN)-stimulated response elements. As a result, THP1-Blue ISG cells allow the monitoring of IRF activation by determining the activity of SEAP. The levels of IRF-induced SEAP in the cell culture supernatant are readily assessed with alkaline phosphatase detection medium, a SEAP detection reagent. These cells are resistant to Zeocin. […] To run the assay, 60,000 cells were dispensed in 30 μL/well of a white, opaque bottom tissue culture treated 384-well plate.
Test compounds were added in a volume of 10 μL (1% DMSO final concentration). Compounds are initially prepared in 100% DMSO, spotted on an intermediate dilution plate and then diluted in media prior to transfer. The assay was incubated for 24 h at 37 °C, 5% CO2 then plates were centrifuged at 1200 rpm (120× g) for 5 min. After final incubation, 90 μL of alkaline phosphatase detection medium-substrate was added to each well of a new 384-well clear plate and 10 μL of the cell supernatant was transferred from the assay plate to the new alkaline phosphatase detection medium-plate using a Biomek FX and mixed 4 times.

[3] = system: CT26 colon carcinoma tumor; experiment: STING in vivo activity, mouse CT26 tumor model; conditions: CT26 tumor in Balb/c mice, 0.05 mg intratumorally every three days, three doses; for In vivo activity (cures): animals with no measurable tumor of 8
Protocol: For all studies, female Balb/c mice were obtained from Charles River Labs (Wilmington, Mass.) and used when they were 6-8 weeks of age and weighed approximately 20 g. All animals were allowed to acclimate and recover from any shipping-related stress for a minimum of 5 days prior to experimental use. Reverse osmosis chlorinated water and irradiated food (Laboratory Autoclavable Rodent Diet 5010, Lab Diet) were provided ad libitum, and the animals were maintained on a 12 h light and dark cycle. Cages and bedding were autoclaved before use and changed weekly. All experiments were carried out in accordance with The Guide for the Care and Use of Laboratory Animals and were approved by the Institutional Animal Care and Use Committee of Janssen R & D, Spring House, Pa. Each experimental group contained 8 mice. In vivo efficacy in a mouse CT26 tumor model was determined by implanting 500,000 CT26 colon carcinoma tumor cells subcutaneously into Balb/c mice and allowing tumors to establish to 100-300 mm^3. Compounds were injected intratumorally formulated in phosphate buffered saline in a volume of 0.1 ml per injection. Mice were administered 0.05 mg every three days for a total of three doses. Efficacy was measured as the percent tumor growth inhibition (TGI) calculated by the reduction in size of the Treated tumor volume (T) over the Control tumor volume (C) according to the following formula: ((C−T)/(C))*100 when all control animals were still on study. Cures were defined as the number of animals with no measurable tumor detected 10 tumor volume doubling times (TVDT) after the last dose was administered.

STING = STING (Homo sapiens, UniProt Q86WV6, H232R); experiment: STING SPA binding assay; conditions: displacement of [3H]-2′3′-cGAMP; mean of at least three values; read-out: hSTING SPA IC50
Protocol: The HIS tag is cleaved after purification and prior to biotinylation.
Test compounds (80 nL) were added with an acoustic dispenser (EDC Biosystems) in 100% DMSO for a final assay concentration of 1% DMSO. Plates were centrifuged for 1 min and incubated for 60 min at room temperature. Finally, (2 μL) polystyrene streptavidin SPA beads (PerkinElmer RPNQ0306) were added and plates were sealed and centrifuged for 1 min at room temperature. Plates were dark adapted for 2 h and read on a ViewLux (Perkin Elmer) for 12 min per plate.

HBV infected PHH cells = experiment: Suppression of HBV virus in PHH cells using conditioned media from STING activated primary human PBMC; assay type: cell-based, hepatitis B virus; conditions: conditioned media from PBMCs stimulated at 20, 4, 0.8 μM for 48 h, 1:1 on HBV infected PHH cells; HBsAg 8 days later; two donors; read-out: EC50 (HBsAg production)
From the text: Suppression of HBV Virus in PHH Cells Using Conditioned Media from STING Activated Primary Human PBMC
Primary human hepatocytes can be infected with hepatitis B virus and during an established infection, will produce viral proteins such as HBsAg and HBeAg that can be detected by ELISA. Therapeutic treatment with compounds such as entecavir can suppress HBV reproduction, which can be measured by decreased viral protein production. (# of cells) 4×10^5 cells/well primary human hepatocytes (BioReclamation, Westbury, N.Y.) were dispensed into 500 μL/well of flat-bottom, tissue culture treated, 24-well plates. 24 h later, cells were infected with 30-75 moi of HBV. On the next day, the PHH were washed 3× and fresh maintenance media was added to the cells. Concurrently, PBMC were isolated as described previously. To stimulate the PBMC, 10,000,000 cells were dispensed into 400 μL/well of flat-bottom, tissue culture treated, 24-well plates. […] Cells were measured for activation marker upregulation using flow cytometery. […] Samples were analyzed on an Attune NxT flow cytometer (Thermo Fisher, Carlsbad, Calif.)
From the stimulated PBMC cultures, a portion of supernatant was reserved for cytokine detection by Luminex, as described previously. […] Following 96 h, the media was collected and HBsAg was measured.

Chain of STING (Q86WV6 139-379 H232R): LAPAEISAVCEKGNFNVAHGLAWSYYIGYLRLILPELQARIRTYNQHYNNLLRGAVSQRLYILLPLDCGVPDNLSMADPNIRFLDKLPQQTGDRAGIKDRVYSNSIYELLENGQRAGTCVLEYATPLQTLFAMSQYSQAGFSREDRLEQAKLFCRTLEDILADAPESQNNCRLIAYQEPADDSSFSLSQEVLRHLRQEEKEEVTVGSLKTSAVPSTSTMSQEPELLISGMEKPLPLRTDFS

EC50 [2] | IC50 (STING) | EC50 (HBV infected PHH cells) | SMILES | human IFN-β (ranking value) [1] | In vivo activity (% TGI) [3] | In vivo activity (cures) [3]
450 nM | – | – | B[P@]1(=O)OCC2OC(n3cnc4c(N)ncnc43)C(F)C2O[P@@](=O)(S)OCC2OC(n3cnc4c(=O)[nH]c(N)nc43)C(O1)C2OC (single isomer, unassigned) [Compound 14] | 4964 | – | –
540 nM | – | – | B[P@]1(=O)OCC2OC(n3cnc4c(=O)[nH]c(N)nc43)C(O[P@](=O)(S)OCC3OC(n4cnc5c(N)ncnc54)C(F)C3O1)C2OC (single isomer, unassigned) [Compound 10] | 1321 | – | –
110 nM | – | – | B[P@@]1(=O)OCC2OC(n3cnc4c(=O)[nH]c(N)nc43)C(O[P@](B)(=O)OCC3OC(n4cnc5c(N)ncnc54)C(O)C3O1)C2O (single isomer, unassigned) [Compound 8] | 2054 | 95.3% | 4/8
220 nM | < 10 nM | – | B[P@]1(=O)OCC2OC(n3cnc4c(=O)[nH]c(N)nc43)C(O[P@@](B)(=O)OCC3OC(n4cnc5c(N)ncnc54)C(F)C3O1)C2OC (single isomer, unassigned) [Compound 12] | 3860 | – | –
640 nM | – | – | B[P@@]1(=O)OCC2OC(n3cnc4c(=O)[nH]c(N)nc43)C(O[P@](=O)(S)OCC3OC(n4cnc5c(N)ncnc54)C(F)C3O1)C2OC (single isomer, unassigned) [Compound 9] | 2240 | 89.8% | –
120 nM | – | – | Nc1nc2c(ncn2C2OC3COP(=O)(O)OC4C5OCC4(COP(=O)(O)OC2C3O)OC5n2cnc3c(N)ncnc32)c(=O)[nH]1 (stereo not drawn) [Compound 6] | 27 | 73.9% | 1/8
1120 nM | – | 0.0851 nM | B[P@]1(=O)OCC2OC(n3cnc4c(=O)[nH]c(N)nc43)C(O[P@@](B)(=O)OCC3OC(n4cnc5c(N)ncnc54)C(O)C3O1)C2O (single isomer, unassigned) [Compound 7] | 2260 | 94.3% | 5/8
90 nM | – | – | Nc1nc2c(ncn2C2OC3CO[P@@](=O)(S)OC4C(CO[P@@](=O)(S)OC2C3O)OC(n2cnc3c(N)ncnc32)C4F)c(=O)[nH]1 (single isomer, unassigned) [Compound 4] | 2247 | 93.7% | 6/8
590 nM | – | – | B[P@@]1(=O)OCC2OC(n3cnc4c(N)ncnc43)C(F)C2O[P@](=O)(S)OCC2OC(n3cnc4c(=O)[nH]c(N)nc43)C(O1)C2OC (single isomer, unassigned) [Compound 13] | 2900 | – | –
490 nM | < 10 nM | – | B[P@@]1(=O)OCC2OC(n3cnc4c(=O)[nH]c(N)nc43)C(O[P@](B)(=O)OCC3OC(n4cnc5c(N)ncnc54)C(F)C3O1)C2OC (single isomer, unassigned) [Compound 11] | 3840 | – | –
160 nM | – | – | Nc1nc2c(ncn2C2OC3CO[P@](=O)(S)OC4C(CO[P@](=O)(S)OC2C3O)OC(n2cnc3c(N)ncnc32)C4F)c(=O)[nH]1 (single isomer, unassigned) [Compound 5] | 2737 | 93.3% | 7/8
